# Assays:
# [1] = Phase 2a study: body weight and plasma lipids; assay type: in vivo, human; conditions: patients who responded to miricorilant treatment (FIG. 4)
# Experimental: Measures of the effectiveness of miricorilant versus placebo in reducing liver fat were assessed by magnetic resonance imaging (MRI). The change from baseline MRI measurements relative to MRI measurements taken following a course of daily miricorilant or placebo administration were assessed by magnetic resonance imaging-proton density fat fraction (MRI-PDFF). Additionally, effects of miricorilant may be assessed by measuring one or more of the following, either by comparing change from baseline after one or more days of miricorilant administration, or by comparing measurements in patients administered miricorilant versus patients administered placebo: change in liver fat assessed by MRI-PDFF; change in AST, ALT, and gamma-glutamyl transferase (GGT); change in propeptide of type III collagen (pro-C3); change in enhanced liver fibrosis (ELF) score and its components (hyaluronic acid, tissue inhibitor of metalloproteinases-1 [TIMP-1], type III procollagen [PIIINP]); change in ACTH, serum cortisol, and serum aldosterone (pharmacodynamic assessments); change in Homeostatic Model Assessment of Insulin Resistance (HOMA-IR); change in absolute body weight; and other measurements. […] For patients with diabetes, change in HbA1c and change in fasting blood glucose may be measured to assess the effects of miricorilant. […]
# Liver enzyme levels were measured in the patients.
# Male C57 mice = assay: High-fat diet mice: liver triglycerides and plasma AST; assay type: in vivo, mouse; conditions: 60 mg/kg once a day oral gavage
# Experimental: Male C57 mice (n=24) were given a diet containing […] (a high-fat, “fast food” diet) for 3 weeks. Miricorilant (60 mg/kg) was administered once a day via oral gavage. Plasma aspartate aminotransferase (AST) was measured on days 3, 7, 12, and 18 and 6 mice were sacrificed each week at weeks 1, 2, and 3 for the miricorilant groups and at week 3 for the control (high-fat diet, no miricorilant) group for assessment of liver triglycerides.
# [2] = test system: patients with presumed NASH; assay: Example 6 study: transaminases and safety laboratory values; assay type: in vivo, human
# Experimental: This study was a double-blind, multi-center, placebo-controlled, randomized 3-arm phase 2a study (NCT03823703) conducted to assess the safety and efficacy of miricorilant in reducing liver fat content (LFC) in patients with presumed NASH. Adult patients (18-75 years) with presumed NASH were randomized 1:1:1 to miricorilant 600 mg daily, miricorilant 900 mg daily, or placebo for 12 weeks. […] Abbreviations used in this Example and in the Figures include: ALP, alkaline phosphatase; ALT, alanine aminotransferase; AST, aspartate aminotransferase; ELF, enhanced liver fibrosis; LFC, liver fat content; NASH, non-alcoholic steatohepatitis; ULN, upper limit of normal; AUC, area under the concentration-time curve; Cmax, maximum concentration; EOT, end of treatment; GGT, gamma-glutamyltransferase; INR, international normalized ratio; MRI-PDFF, magnetic resonance imaging-proton density fat fraction; pt, patient; SD, standard deviation; ULN, upper limit of normal; Wk, week.
# Key inclusion criteria included that the patients be adults between 18-75 years old; be presumed to suffer from NASH with fibrosis; have LFC as measured by MRI-PDFF≥8%; have levels of AST<5×ULN and ALT<5×ULN; and have eGFR>60 mL/min/1.73 m^2. Primary endpoints included relative change in LFC from baseline by MRI-PDFF. Secondary endpoints included change from baseline in AST, ALT, GGT, and change from baseline in ELF score.
# Patients were divided into different cohorts and received different regimens of miricorilant. The cohorts included patients receiving 30 mg mircorilant once per day; patients receiving 50 mg mircorilant once per day; patients receiving 100 mg mircorilant once per day; patients receiving 150 mg mircorilant once per day; patients receiving 100 mg mircorilant on Mondays, Wednesdays, and Fridays; patients receiving 100 mg mircorilant on Mondays and Fridays; and patients receiving 200 mg mircorilant once per week. Patients receiving 100 mg mircorilant on Mondays and Fridays were termed “Cohort 6”.
# FIG. 13 provides a plot of MRI-PDFF (top line beginning at week 0) and liver enzyme alanine aminotransferase (ALT; bottom line beginning at week 0) for a patient who received miricorilant treatment that included a cessation of miricorilant treatment from week 7 to week 10. […] GGT was elevated at baseline (peak 88 U/L at Wk 10); at other weeks it was below baseline. Eosinophils (%) baseline 7.3, decreased to 2.2 at Wk 2 and increased Wk 3 (peak 4.3), decreased Wk 8 (2.0) and stable until EOT.
smiles,measurement,setting,value
"O=c1[nH]c(=O)c(Cc2cccc(C(F)(F)F)c2)c([C@H]2CC[C@H](c3ccccc3)CC2)[nH]1 [miricorilant, (E)-6-(4-Phenylcyclohexyl)-5-(3-trifluoromethylbenzyl)-1H-pyrimidine-2,4-dione]",Changes in body weight,[1],No significant changes
same,Liver triglycerides,"Male C57 mice; high-fat diet for 3 weeks, starting at week 1, vs high-fat diet control (FIG. 6A)",rapid reduction
same,Plasma AST,"Male C57 mice; high-fat diet, no change in dose (FIG. 6B)",transient increase at 2 weeks but normalized by 3 weeks
same,Hepatic transaminase levels,"[2]; 100 mg twice weekly, over 12 weeks",without an associated rise
same,Safety and tolerability,[2]; including 100 mg twice weekly,"safe, well tolerated"
same,Eosinophils (%),"[2]; one patient (FIG. 13), Wk 2, baseline 7.3",2.2%
same,Eosinophils (%) peak,"[2]; one patient (FIG. 13), Wk 3",4.3%
same,Eosinophils (%),"[2]; one patient (FIG. 13), Wk 8, stable until EOT",2.0%
same,GGT peak,"[2]; one patient (FIG. 13), Wk 10, elevated at baseline",88 U/L
same,"Total bilirubin, direct bilirubin, ALP, INR","[2]; one patient, treatment ceased from week 7 to week 10 (FIG. 13)",within normal limits
same,"Rise in ALT>3×ULN, intermittent compared to daily dosing","[2]; responders receiving intermittent miricorilant, all cohorts",less likely to have a rise in ALT>3×ULN
same,Transaminase levels,[2]; treatment non-responders (FIG. 10),did not experience a rise

# Reference: patent publication US12616698B2, “Methods for reducing liver fat and for treating fatty liver disorders” (Corcept Therapeutics Incorporated, priority 2021, dated 2026)
